Experimental data from US9662328B2, “Targeting human thymidylate kinase induces DNA repair toxicity in malignant tumor cells” (NATIONAL YANG-MING UNIVERSITY, priority 2010, dated 2017).
One block for each compound: values may come before it.

Assays:
hTMPK [1] = molecular target: T1, hTMPK (Homo sapiens, UniProt P23919); test: In vitro inhibitory activity against human TMPK at 2 μM; assay type: biochemical; settings: test compounds at 2 μM concentration
T1 sequence (P23919 1-212): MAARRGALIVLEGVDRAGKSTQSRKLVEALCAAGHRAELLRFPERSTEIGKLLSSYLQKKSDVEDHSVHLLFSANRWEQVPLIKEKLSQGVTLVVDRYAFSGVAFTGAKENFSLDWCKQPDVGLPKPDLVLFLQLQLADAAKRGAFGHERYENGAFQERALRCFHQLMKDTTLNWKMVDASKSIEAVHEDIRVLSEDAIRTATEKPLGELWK
Experimental: (§1) The TMPK reaction was started by adding purified hTMPK in 50 μl of TMPK assay buffer (100 mM Tris-HCl, pH 7.5, 100 mM KCl, 10 mM MgCl2, 50 μM ATP and 100 μM dTMP) in 96 wells plate at 25° C. for 10 min and terminated by adding 200 μl of DTNB (100 μM), followed by transferring 10 μl of reaction solution to a white 96-wellplate containing 90 μl of luciferase assay buffer (50 mM Glycine, 0.5 mM EDTA and 5 mM EDTA, pH 7.0, 0.1 μg of luciferase, 50 μM luciferin and 0.1% BSA). The luminescence was measured with a luminescence counter (Packard).
(§2) All reactions were performed in 96-well plates in an assay volume of 100 μl. The activity of hTMPK was measured at 25° C. using a modified NADH coupled colorimetric assay as described (Agarwal et al., 1978; Miyata et al., 2003; Ostermann et al., 2003), in which purified hTMPK was added to the buffer containing 100 mM Tris-HCl, pH 7.5, 100 mM KCl, 10 mM MgCl2, 0.5 mM phosphoenol pyruvate, 0.25 mM NADH, 5 units of lactate dehydrogenase, 4 units of pyruvate kinase, 1 mM ATP, and 200 μM dTMP. The change of NADH was measured by reading the absorbance at 340 nm. One unit of TMPK activity is defined as the conversion of […] of TMP to TDP per minute.
The in vitro inhibitory activities of test compounds (at 2 μM concentration) against human TMPK are shown in Table 3 and compared with that of YMU1 and YMU2.

hTMPK [2] = molecular target: T1, hTMPK; test: Inhibition constant (Ki) by NADH-coupled TMPK assay; assay type: biochemical; settings: pre-incubated with 0.5 μg purified hTMPK for 10 min
Experimental: as §2
For determination of inhibition constant (Ki value), the inhibitor at the indicated concentration was pre-incubated with 0.5 μg of purified hTMPK protein for 10 min, and the initial velocity of the TMPK reaction was measured in the presence of ATP (1 mM) and different concentrations of TMP (2-200 μM) or in the presence of TMP (200 μM) and different concentrations of ATP (5-1000 μM) using NADH-coupled TMPK assay as described in the Methods of the Invention section. The Ki value was calculated from an equation of Ki=[I]/(Vmax/Vmax^I−1) wherein [I] is the concentration of inhibitor, and Vmax^I is the maximal velocity in the presence of inhibitor.

MDA-MB231 cell = test: Doxorubicin sensitization in MDA-MB231 cell treatment; assay type: cell-based; settings: compound at 2 μM
Experimental: Cells plated into a 96-well plate (10^3 cells/well) were treated and cell viability was measured by MTS assay (Promega) (Cory et al., 1991). An annexin V-fluorescein isothiocyanate (FITC) apoptosis kit (Calbiochem) was used to detect apoptosis.

hTMPK [3] = molecular target: T1, hTMPK; test: IC50 determination by enzymatic assay; assay type: biochemical
Experimental: as §1, §2
In one embodiment, the IC50 values were determined by enzymatic assay.

HCT-116 p53−/− cells = test: γH2AX foci staining to indicate DNA damage (genotoxicity); assay type: cell-based
Experimental: FIG. 1. TMPK knockdown has no genotoxicity but promoting doxorubicin-induced cell death in p53 proficient and deficient colon cancer cells. […] These cells were fixed for γH2AX foci staining to indicate DNA damage and Western blotting analysis. (B-C) FITC-labeled annexin V apoptosis assay. (B) p53(+/+) HCT-116 were and (−/−) HCT-116 cells were infected with or without lentiviral TMPK^shRNA for 72 hr, treated with 0.5 μM doxorubicin for 24 hr (C) Cells were with or without lentiviral TS^shRNA for 72 hr with a subsequent 1 μM doxorubicin treatment for 24 hr as indicated Cells were then stained with FITC-labeled annexin V and observed by fluorescent microscopy. Green-positive indicates apoptotic cell.
For γH2AX staining, cells were fixed with 4% paraformaldehyde for 30 min at room temperature and were incubated with TBS (50 mM Tris-HCl, pH 7.4, 150 mM NaCl) plus 0.3% Triton X-100 for 5 min. The coverslips were blocked with MAXblock™ (Active Motif) for 1 h at 37° C., followed by staining with primary antibodies: anti-γH2AX monoclonal antibody (1:1000), anti-Rad51 polyclonal
To understand the differential DNA damage effect of blocking thymidylate kinase (TMPK) and thymidylate synthase (TS) in colon cancer cells. TMPK or TS expression was depleted in colon cancer cells, HCT-116 p53^−/−, by infection with lentivirus expressing corresponding shRNA. […]

- inhibition at 2 µM (hTMPK [1]): 79 ± 12%
- Ki (hTMPK [2]): 170 ± 70 nM
SMILES: Cc1cc(C)c2c(=O)n(CC(=O)N3CCN(C(=O)Cn4sc5ccccc5c4=O)CC3)sc2n1 [I-b-5, 4-[(3-Oxo-benzo[d]isothiazol-2-yl)acetyl]-1-[(4,6-dimethyl-3-15 oxoisothiazolo[5,4-b]pyridin-2-yl)acetyl]piperazine]

SMILES: CCOC(=O)N1CCN(C(=O)Cn2sc3nc(C)cc(C)c3c2=O)CC1 [YMU1]
- enhancement on doxorubicin sensitization (MDA-MB231 cell): 30 fold

SMILES: CCOC(=O)N1CCN(C(=O)Cn2sc3nc(C)cc(C)c3c2=O)CC1 [YMU1, reference compound]
- IC50 (hTMPK [3]): 2210 ± 60 nM
- inhibition at 2 µM (hTMPK [1]): 42 ± 15%
- DNA lesions in nuclei (γH2AX foci) (HCT-116 p53−/− cells; human, 2 μM): not

SMILES: O=c1[nH]c(=O)n([C@H]2C[C@H](O)[C@@H](CO)O2)cc1F [FdUrd, 5-fluoro-2′deoxyuridine]
- DNA lesions in nuclei (γH2AX foci) (HCT-116 p53−/− cells; YMU1 2 μM for 2 days, FdUrd 2 μM for 1 day): gave DNA lesions in nuclei
